The source made the active and inactive calls.
Legend:
[1] = target: Sphingosine 1-phosphate receptor 2 (Homo sapiens, UniProt O95136); assay: Dose Response Cell Based Assay for Agonists of the S1P2 Receptor. [Related pubchem assays: 729, 736, 843 ]; assay type: functional
[2] = target: Ubiquitin carboxyl-terminal hydrolase BAP1 (Homo sapiens, UniProt Q92560); assay: BAP1 deubiquitinase inhibitors, dose response, biochemical (AID 714); assay type: functional
Bcl-2-like protein 10 = target: T1, Bcl-2-like protein 10 (Homo sapiens, UniProt Q9HD36); assay: displacers of TR3 peptide from Bcl-B, primary screen, selectivity assay for Bfl-1 inhibitor project, biochemical, fluorescence polarization, FITC-TR3 peptide (AID 748);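 further: fluorescence polarization from a fluorescein-labelled TR3 peptide binding purified Bcl-B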
T1 sequence (Q9HD36 whole entry): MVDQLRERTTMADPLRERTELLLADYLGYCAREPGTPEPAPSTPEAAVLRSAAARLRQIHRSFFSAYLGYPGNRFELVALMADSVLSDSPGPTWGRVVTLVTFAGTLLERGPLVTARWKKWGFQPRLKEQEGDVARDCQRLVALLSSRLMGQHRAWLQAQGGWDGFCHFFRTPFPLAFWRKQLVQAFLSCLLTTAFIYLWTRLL

[3] = target: Glutathione-S-transferase (Schistosoma japonicum, UniProt Q26513); assay: biotin-GST/anti-GST TR-FRET signal inhibitors, dose response, artefact control for Vif-APOBEC3G degradation inhibitor project, biochemical (AID 1117362); assay type: functional
[4] = inhibitors of Vif binding to APOBEC3G peptide, primary screen, biochemical, TR-FRET, GST-Vif 1-94, biotin-A3G peptide, dose response retest (AID 1117319); assay type: functional;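 further: TR-FRET signal of purified GST-Vif binding a biotinylated A3G peptide; inhibitors lower the FRET signal by blocking Vif and A3G binding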
[5] = Vero cell cytotoxicity, dose response, cytotoxicity control for Vif-APOBEC3G degradation inhibitor project, Vero cells (AID 1117358); assay type: functional; details: Human immunodeficiency virus 1, Vero
Caspase-3 = target: T2, Caspase-3 (Homo sapiens, UniProt P42574); assay type: functional;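 further: Dose-response selectivity test against caspase-3 for candidate inhibitors of sentrin-specific proteases (SENPs)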
T2 sequence (P42574 whole entry): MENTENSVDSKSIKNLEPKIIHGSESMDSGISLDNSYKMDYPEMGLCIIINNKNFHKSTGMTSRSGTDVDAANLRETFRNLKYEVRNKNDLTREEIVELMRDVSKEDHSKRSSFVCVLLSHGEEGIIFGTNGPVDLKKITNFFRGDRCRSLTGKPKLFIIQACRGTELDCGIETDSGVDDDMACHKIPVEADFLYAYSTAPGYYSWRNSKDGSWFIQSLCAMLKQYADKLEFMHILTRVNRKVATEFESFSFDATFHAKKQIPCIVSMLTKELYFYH

Caspase-7 = Caspase-7 (Homo sapiens, UniProt P55210); assay: human caspase-7 inhibitors, dose response, selectivity assay for caspase-6 inhibitor project, biochemical, DEVD-R110 fluorescence, cherry-pick (AID 743295)
[6] = target: T3, Sentrin-specific protease 8 (Homo sapiens, UniProt Q96LD8); assay type: functional;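 further: luminescence read-out of SENP8 inhibition, dose-response confirmation following an ultra-high-throughput screen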
T3 sequence (Q96LD8 whole entry): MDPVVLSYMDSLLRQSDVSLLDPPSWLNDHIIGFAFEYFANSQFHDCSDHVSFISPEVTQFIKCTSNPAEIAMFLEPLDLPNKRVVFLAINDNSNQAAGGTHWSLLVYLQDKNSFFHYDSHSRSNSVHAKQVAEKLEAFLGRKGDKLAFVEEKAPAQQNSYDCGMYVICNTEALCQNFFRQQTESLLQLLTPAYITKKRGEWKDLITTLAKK

[7] = target: T4, Sentrin-specific protease 6 (Homo sapiens, UniProt Q9GZR1); assay type: functional;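 further: Luminescence-based dose-response confirmatory assay of SENP6 inhibition, following up an ultra-high-throughput screen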
T4 sequence (Q9GZR1 whole entry): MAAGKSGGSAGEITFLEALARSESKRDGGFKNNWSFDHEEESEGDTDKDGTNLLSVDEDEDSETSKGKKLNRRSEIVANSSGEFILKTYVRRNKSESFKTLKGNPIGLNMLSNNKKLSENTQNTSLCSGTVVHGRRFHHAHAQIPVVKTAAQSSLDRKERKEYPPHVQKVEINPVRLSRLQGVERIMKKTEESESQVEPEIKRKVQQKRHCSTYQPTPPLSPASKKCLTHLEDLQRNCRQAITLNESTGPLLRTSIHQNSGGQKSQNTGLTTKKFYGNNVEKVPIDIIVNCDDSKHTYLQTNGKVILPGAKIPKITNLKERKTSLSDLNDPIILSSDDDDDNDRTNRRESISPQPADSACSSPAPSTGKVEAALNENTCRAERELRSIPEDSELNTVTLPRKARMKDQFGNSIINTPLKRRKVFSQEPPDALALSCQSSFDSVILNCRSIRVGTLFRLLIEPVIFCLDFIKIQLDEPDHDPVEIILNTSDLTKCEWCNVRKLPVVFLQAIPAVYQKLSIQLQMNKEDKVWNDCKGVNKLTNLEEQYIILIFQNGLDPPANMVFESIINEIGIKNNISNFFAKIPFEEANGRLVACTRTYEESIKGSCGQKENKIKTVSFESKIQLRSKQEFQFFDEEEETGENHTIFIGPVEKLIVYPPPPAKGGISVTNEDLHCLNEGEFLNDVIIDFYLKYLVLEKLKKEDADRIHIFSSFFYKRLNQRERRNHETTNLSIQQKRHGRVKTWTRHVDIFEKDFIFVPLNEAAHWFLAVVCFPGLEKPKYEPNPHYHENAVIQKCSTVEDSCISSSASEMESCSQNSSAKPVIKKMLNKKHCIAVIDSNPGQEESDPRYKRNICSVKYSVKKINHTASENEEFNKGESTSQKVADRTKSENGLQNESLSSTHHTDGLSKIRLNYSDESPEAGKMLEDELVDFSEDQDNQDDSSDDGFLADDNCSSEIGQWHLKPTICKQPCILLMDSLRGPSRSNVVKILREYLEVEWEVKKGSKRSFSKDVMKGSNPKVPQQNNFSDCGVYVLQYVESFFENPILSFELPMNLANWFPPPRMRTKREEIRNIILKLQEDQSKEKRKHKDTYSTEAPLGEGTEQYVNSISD

Caspase-6 = Caspase-6 (Homo sapiens, UniProt P55212); assay: human caspase-6 inhibitors, dose response, biochemical, VEID-R110 fluorescence, cherry-pick (AID 720632)
[8] = target: T5, Sentrin-specific protease 7 (Homo sapiens, UniProt Q9BQF6); assay type: functional;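 further: Luminescence-based dose-response confirmation of ultra-high-throughput screening hits, measuring inhibition of SENP7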
T5 sequence (Q9BQF6 whole entry): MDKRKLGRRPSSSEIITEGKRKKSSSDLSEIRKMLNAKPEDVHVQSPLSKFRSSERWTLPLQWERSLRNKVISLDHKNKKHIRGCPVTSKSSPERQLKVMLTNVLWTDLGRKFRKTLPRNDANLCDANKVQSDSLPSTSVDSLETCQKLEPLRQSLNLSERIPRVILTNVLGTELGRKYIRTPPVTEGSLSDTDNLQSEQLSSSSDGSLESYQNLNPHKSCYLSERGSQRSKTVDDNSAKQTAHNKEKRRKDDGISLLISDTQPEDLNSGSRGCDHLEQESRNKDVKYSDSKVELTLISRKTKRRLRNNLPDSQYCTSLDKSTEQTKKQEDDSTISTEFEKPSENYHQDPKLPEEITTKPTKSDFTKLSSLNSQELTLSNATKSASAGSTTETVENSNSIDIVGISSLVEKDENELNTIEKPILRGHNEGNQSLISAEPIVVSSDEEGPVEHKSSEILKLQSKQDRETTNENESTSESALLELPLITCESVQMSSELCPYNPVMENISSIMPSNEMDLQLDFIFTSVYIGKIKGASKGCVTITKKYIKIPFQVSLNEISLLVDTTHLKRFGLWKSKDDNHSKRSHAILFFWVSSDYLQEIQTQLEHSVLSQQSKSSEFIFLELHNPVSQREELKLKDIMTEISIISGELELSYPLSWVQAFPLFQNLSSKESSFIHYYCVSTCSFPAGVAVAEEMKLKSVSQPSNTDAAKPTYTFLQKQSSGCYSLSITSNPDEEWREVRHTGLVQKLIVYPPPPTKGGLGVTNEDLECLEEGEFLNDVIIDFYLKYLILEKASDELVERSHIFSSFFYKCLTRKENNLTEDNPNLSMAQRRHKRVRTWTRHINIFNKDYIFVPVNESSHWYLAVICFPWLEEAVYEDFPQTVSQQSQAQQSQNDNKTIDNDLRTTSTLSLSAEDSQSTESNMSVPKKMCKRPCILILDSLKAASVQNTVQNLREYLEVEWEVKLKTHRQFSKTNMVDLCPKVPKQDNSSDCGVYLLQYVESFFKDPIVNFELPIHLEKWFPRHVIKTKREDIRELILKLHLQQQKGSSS

Caspase-8 = Caspase-8 (Homo sapiens, UniProt Q14790); assay: caspase-8 inhibition counter-screen, dose response, selectivity assay for caspase-6 inhibitor project, biochemical, Z-IETD-R110 fluorescence, cherry-picked samples (AID 743294)
[9] = target: T6, Mitochondrial peptide methionine sulfoxide reductase (Bos taurus, UniProt P54149); assay: Absorbance-based biochemical high throughput dose response assay for activators of Methionine sulfoxide reductase A (MsrA).; assay type: functional
T6 sequence (P54149 whole entry): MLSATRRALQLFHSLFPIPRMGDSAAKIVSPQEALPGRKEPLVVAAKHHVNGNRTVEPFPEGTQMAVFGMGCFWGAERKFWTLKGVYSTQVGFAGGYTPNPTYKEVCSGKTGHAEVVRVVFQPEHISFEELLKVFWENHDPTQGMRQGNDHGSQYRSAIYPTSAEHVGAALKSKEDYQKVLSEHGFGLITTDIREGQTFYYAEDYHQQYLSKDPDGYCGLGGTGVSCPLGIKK

[10] = CTGF mRNA reduction under YAP1 overexpression, dose response, mechanism study for YAP1 pathway inhibitor project, DLD1 cells, RT-qPCR, cherry-pick (AID 1053127); assay type: functional, cell-based; details: DLD-1
[11] = target: G-protein coupled receptor 183 (Homo sapiens, UniProt P32249); assay: SAR confirmation of small molecule antagonists of the EBI2 receptor via a luminescent beta-arrestin assa.; assay type: functional
Phospholipase D2 = Phospholipase D2 (Homo sapiens, UniProt O14939); assay: PLD2 Cellular Concentration Response Study.; assay type: functional
Phospholipase D1 = Phospholipase D1 (Homo sapiens, UniProt Q13393); assay: PLD1 Cellular Concentration Response Study.; assay type: functional
[12] = P. falciparum Dd2 growth inhibitors, dose response, SYBR Green, cherry-picked samples (AID 1159567); assay type: functional, cell-based
[13] = HepG2 cell cytotoxicity, dose response, cytotoxicity control, cherry-picked samples (AID 1159577); assay type: functional, cell-based
[14] = P. falciparum ATP4 D1247Y mutant growth inhibitors, dose response, NITD609-resistant line, SYBR Green, dry powder (AID 1159571); assay type: functional, cell-based;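 further: parasites synchronized at ring stage by sorbitol before testing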
[15] = P. falciparum Dd2 growth inhibitors, dose response, SYBR Green, dry powder samples (AID 1159566); assay type: functional, cell-based;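 further: potency for growth inhibition with lower SYBR green DNA signal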
[16] = HepG2 cell cytotoxicity, dose response, cytotoxicity control, plate reader, dry powder samples (AID 1159569); assay type: functional, cell-based;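 further: inhibitor potency with signal falling toward the positive control level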
[17] = P. falciparum 3D7-ScDHODH growth inhibitors, dose response, SYBR Green, dry powder samples (AID 1159570); assay type: functional, cell-based;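 further: parasite growth measured after 72 hours of compound exposure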
[18] = target: Metabotropic glutamate receptor 7 (Homo sapiens, UniProt Q14831); assay: mGlu7 positive allosteric modulators, dose response, cell-based, calcium mobilization, Galpha15 (AID 743384); assay type: functional
[19] = HEK293 cell cytotoxicity, dose response, cytotoxicity control, ATP luminescence, dry powder, set 3 (AID 743131); assay type: functional, cell-based
[20] = HepG2 cell cytotoxicity, dose response, cytotoxicity control, ATP luminescence, dry powder, set 2 (AID 743129); assay type: functional, cell-based
[21] = A549 cell cytotoxicity, dose response, cytotoxicity control, CellTiter-Glo luminescence, dry powder, set 5 (AID 743158); assay type: functional, cell-based
[22] = Dose-response inhibition of insulin secretion in a rat insulinoma line at 5 mM glucose (AID 1117331); assay type: functional, cell-based; details: INS-1E
cells = assay type: functional, cell-based; details: INS-1E

Chain of Phospholipase D1 (Q13393 whole entry): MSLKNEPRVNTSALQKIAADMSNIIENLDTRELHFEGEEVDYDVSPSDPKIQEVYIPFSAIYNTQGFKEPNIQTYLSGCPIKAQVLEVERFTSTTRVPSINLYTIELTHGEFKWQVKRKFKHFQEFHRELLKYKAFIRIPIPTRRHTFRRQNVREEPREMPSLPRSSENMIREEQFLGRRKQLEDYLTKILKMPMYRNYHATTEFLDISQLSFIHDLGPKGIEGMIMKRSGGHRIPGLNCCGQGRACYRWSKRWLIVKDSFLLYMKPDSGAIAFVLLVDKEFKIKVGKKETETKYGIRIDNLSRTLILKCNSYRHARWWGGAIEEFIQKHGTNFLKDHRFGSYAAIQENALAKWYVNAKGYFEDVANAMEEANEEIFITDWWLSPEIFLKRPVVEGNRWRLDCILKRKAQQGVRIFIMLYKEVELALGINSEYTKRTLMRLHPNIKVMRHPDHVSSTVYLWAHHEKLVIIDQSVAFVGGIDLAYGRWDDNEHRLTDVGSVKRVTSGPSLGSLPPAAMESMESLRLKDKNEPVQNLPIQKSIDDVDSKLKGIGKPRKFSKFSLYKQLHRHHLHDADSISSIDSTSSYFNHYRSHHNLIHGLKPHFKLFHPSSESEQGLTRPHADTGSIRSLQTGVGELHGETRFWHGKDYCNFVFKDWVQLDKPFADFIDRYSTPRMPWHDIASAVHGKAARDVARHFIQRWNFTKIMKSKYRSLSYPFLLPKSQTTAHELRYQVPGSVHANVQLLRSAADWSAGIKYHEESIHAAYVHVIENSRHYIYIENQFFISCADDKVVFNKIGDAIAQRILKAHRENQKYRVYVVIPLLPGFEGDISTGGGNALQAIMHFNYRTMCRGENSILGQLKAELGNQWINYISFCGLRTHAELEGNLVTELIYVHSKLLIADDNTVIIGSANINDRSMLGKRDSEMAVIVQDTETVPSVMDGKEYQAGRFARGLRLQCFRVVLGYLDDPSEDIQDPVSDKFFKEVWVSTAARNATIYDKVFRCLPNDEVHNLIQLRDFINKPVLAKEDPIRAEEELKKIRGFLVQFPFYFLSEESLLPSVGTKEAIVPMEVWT
Chain of G-protein coupled receptor 183 (P32249 whole entry): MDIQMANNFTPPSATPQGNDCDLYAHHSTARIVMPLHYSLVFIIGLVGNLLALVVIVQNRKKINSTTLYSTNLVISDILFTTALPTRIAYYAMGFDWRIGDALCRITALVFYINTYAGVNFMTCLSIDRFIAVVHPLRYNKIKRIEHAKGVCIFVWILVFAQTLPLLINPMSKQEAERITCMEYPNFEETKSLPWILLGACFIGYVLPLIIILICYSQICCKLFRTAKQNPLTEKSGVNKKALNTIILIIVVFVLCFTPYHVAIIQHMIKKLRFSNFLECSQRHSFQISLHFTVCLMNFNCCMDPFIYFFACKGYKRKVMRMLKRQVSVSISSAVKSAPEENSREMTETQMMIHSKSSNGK
Chain of Phospholipase D2 (O14939 whole entry): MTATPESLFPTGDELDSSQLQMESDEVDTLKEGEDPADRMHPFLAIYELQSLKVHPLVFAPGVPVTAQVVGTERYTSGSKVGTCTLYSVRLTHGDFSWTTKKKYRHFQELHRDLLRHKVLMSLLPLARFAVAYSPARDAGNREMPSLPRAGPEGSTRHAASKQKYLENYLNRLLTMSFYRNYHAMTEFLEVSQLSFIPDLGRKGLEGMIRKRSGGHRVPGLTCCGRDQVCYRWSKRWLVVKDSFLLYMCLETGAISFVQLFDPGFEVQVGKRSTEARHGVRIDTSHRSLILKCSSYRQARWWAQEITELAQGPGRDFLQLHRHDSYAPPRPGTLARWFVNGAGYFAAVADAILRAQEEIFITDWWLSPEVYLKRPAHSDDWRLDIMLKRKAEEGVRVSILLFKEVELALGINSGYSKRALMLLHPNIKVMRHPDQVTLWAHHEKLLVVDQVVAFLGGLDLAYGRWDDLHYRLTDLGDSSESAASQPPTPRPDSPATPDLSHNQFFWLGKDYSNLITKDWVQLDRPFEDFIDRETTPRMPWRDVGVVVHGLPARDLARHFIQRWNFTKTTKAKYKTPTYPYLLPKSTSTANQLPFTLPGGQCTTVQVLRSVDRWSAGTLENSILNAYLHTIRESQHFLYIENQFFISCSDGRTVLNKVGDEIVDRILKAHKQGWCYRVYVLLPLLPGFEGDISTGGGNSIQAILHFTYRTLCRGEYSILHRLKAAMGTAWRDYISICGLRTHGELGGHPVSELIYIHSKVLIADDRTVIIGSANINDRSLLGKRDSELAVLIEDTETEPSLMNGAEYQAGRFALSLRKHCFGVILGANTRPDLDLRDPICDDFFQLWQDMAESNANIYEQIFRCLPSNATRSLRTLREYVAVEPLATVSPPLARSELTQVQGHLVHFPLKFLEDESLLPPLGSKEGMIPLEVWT
Chain of Caspase-7 (P55210 24-198 limits assumed): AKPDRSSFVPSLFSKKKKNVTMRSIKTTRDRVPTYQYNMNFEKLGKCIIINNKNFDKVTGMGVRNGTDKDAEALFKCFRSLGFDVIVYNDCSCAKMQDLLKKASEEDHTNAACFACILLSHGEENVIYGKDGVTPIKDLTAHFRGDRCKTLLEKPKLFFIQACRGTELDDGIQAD
Chain of Caspase-7 (P55210 207-303 limits assumed): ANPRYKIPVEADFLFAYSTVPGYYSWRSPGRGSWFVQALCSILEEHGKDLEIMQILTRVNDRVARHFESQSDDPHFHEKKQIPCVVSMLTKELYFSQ
Chain of Caspase-6 (P55212 24-179 limits assumed): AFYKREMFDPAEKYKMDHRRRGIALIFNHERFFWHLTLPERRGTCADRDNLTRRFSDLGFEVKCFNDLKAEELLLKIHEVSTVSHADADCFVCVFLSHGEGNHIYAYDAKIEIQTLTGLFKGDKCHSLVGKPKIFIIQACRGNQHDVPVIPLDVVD
Chain of Caspase-6 (P55212 194-293 limits assumed): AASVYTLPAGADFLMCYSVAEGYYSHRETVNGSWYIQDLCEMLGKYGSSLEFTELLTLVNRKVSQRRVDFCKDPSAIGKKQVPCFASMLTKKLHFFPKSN
Chain of Ubiquitin carboxyl-terminal hydrolase BAP1 (Q92560 whole entry): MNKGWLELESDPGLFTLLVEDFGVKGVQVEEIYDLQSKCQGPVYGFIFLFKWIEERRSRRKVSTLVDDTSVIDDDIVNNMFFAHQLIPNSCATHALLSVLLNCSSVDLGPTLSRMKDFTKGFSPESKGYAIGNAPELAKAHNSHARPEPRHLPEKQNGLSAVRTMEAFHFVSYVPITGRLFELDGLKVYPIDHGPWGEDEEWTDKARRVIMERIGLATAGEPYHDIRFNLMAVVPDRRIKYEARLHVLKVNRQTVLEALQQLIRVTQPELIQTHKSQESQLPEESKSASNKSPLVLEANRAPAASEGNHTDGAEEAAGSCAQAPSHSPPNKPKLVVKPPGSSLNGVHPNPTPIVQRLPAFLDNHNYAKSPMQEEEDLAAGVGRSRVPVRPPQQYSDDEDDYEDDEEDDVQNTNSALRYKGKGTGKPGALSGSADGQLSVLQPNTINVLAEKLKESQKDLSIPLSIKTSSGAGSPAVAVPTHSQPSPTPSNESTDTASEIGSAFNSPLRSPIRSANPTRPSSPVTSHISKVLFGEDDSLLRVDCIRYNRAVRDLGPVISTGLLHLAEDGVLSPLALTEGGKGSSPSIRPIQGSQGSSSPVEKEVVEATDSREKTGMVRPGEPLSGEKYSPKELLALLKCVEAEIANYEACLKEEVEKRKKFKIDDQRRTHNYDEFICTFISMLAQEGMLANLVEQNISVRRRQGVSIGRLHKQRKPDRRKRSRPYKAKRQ
Chain of Sphingosine 1-phosphate receptor 2 (O95136 whole entry): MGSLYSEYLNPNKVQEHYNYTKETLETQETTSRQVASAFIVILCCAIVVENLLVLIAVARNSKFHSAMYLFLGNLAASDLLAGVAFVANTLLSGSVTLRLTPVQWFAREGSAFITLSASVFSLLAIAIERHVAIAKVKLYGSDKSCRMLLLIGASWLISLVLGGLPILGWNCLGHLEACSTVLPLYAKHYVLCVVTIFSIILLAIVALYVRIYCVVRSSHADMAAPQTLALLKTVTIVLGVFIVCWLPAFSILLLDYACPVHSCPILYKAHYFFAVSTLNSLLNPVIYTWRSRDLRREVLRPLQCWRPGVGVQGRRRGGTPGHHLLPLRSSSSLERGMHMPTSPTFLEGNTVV
Chain of Glutathione-S-transferase (Q26513 whole entry): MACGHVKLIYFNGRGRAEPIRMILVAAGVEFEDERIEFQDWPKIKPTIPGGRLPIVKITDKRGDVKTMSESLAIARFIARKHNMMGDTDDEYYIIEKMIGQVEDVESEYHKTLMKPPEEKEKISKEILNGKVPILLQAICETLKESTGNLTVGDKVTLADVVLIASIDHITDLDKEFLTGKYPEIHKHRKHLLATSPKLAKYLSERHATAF
Chain of Caspase-8 (Q14790 217-374 limits assumed): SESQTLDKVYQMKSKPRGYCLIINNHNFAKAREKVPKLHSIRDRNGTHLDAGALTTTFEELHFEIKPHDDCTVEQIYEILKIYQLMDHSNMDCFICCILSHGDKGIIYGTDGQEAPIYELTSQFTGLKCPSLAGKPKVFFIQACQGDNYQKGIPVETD
Chain of Caspase-8 (Q14790 385-479 limits assumed): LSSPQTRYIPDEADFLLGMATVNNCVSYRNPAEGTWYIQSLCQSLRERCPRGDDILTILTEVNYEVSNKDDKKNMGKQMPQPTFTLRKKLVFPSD

Oc1nc(-c2cccs2)nc2ccccc12
EC50 [1]: > 50 µM (not active)

Cc1sc(NC(=O)CSc2nnc(C)c(=O)[nH]2)c(C#N)c1C
IC50 [2]: > 50 µM (not active)

Cc1ccc(OCCSc2nnc(-c3ccncc3)n2C)cc1
IC50 (Bcl-2-like protein 10): > 100 µM (inactive) | IC50 [3]: > 100 µM (active)

COc1ccccc1Cn1c(-c2ccccc2OC)nc2ccccc21
IC50 [4]: > 100 µM (active) | CC50 [5]: > 40 µM (active)

O=C1CN(C(=O)COC(=O)c2ccc([N+](=O)[O-])s2)c2ccccc2N1
IC50 (Caspase-3): 96.6 µM (active) | AC50 (Caspase-7): 20 µM (active) | IC50 [6]: 47.9 µM (active) | IC50 [7]: 52.9 µM (active) | AC50 (Caspase-6): 3.32 µM (active) | IC50 [8]: 92 µM (active) | AC50 (Caspase-8): 19.6 µM (active) | EC50 [9]: 17.4 µM (inactive)

COc1cccc(-c2ccc([C@@H]3[C@@H](CO)N4CCCCN(C(=O)Cc5ccncc5)C[C@@H]34)cc2)c1
AC50 [10]: > 26 µM (inactive)

O=C(/C=C/c1ccc(F)cc1)N1CCN(S(=O)(=O)c2ccccc2F)CC1
IC50 [11]: 0.0194 µM (active)

O=C(NCCN1CCC2(CC1)C(=O)NCN2Cc1ccc(Cl)cc1)c1ccc2ccccc2c1
IC50 (Phospholipase D2): 1.54 µM (active) | IC50 (Phospholipase D1): 6.78 µM (active)

O=C(C1CCC1)N1C[C@@H]2N[C@H](C1)[C@@H]2c1ccc(/C=C/c2ccccc2)cc1
AC50 [12]: 3.76 µM (active) | AC50 [13]: 11.5 µM (active)

O=C(Nc1ccc(C(F)(F)F)cc1)N1C[C@@H]2N[C@H](C1)[C@@H]2c1ccc(-c2cccnc2)cc1
AC50 [12]: 1.12 µM (active) | AC50 [14]: 0.022 µM (active) | AC50 [15]: 0.0354 µM (active) | AC50 [16]: 18.6 µM (active) | AC50 [17]: 0.0146 µM (active)

COC(=O)c1ccc(-n2c(C)cc(C(=O)CSc3ccc(N(C)C(C)=O)cc3)c2C)cc1
EC50 [18]: 10 µM (active)

CCOC(=O)c1c(-c2ccc(C(C)(C)C)cc2)csc1NC(=O)CN1CCN(CC)CC1
AC50 [19]: 9.03 µM (active) | AC50 [20]: 15.3 µM (active) | AC50 [21]: 11.9 µM (active)

Cc1cc2c(OCC(CNC(C)(C)C)OC(=O)c3ccccc3)cccc2[nH]1 (stereo unspecified) [BOPINDOLOL]
IC50 [22]: 14.6 µM (inactive) | IC50 (cells): > 33.3 µM (inactive)

From ChEMBL document CHEMBL1201862, “PubChem BioAssay data set” (2004)
